Values quoted from earlier work as cited in patent publication US20050009922A1, “Stable aqueous antimicrobial suspension” (priority 2001, published 2005).

Conditions: in water, 25° C., FIG. 1

N#CC(Br)(Br)C(N)=O [DBNPA, 2,2 dibromo 3-nitrilopropionamide]
pH of lowest rate of hydrolysis: < 4 pH
